Test results published in patent US11124490B2, “Autotaxin inhibitors” (UNIVERSITY OF TENNESSEE RESEARCH FOUNDATION, priority 2016, dated 2021).
Where “and” joins values, the source holds several entries; their conditions need not be identical. Identical values can stand only once.

How the values were obtained:
human recombinant ATX [1] = target: T1, human recombinant ATX (Homo sapiens (Human), UniProt Q13822); experiment: ATX inhibition, hydrolysis of FRET substrate FS-3; type: biochemical; conditions: for IC50: 1 μM FS-3, 4 nM human recombinant ATX, 1 hour time point, read-out: IC50 (nM ± SD) vs FS-3
Description: (§1) ATX Generation: Human recombinant ATX was expressed as published previously, using Sf9 Spodoptera frugiperda ovary cells (Invitrogen, Carlsbad, Calif.).^13 Suspension cells were grown to a 1 liter quantity at a concentration of 1×10^6 cells/ml in Sf-900 III serum-free medium (Invitrogen) supplemented with 50 U/ml penicillin and 50 μg/ml streptomycin at 27° C. with agitation. Cells were then infected with high-titer baculovirus generated via Bac-to-Bac Baculovirus Expression System (Invitrogen) using the pCMV5 mammalian expression vector containing the C-terminal FLAG-tagged human ATX sequence (a generous gift from Dr. Junken Aoko, ohoku University, Aoba-ku, Sendai, Japan) subcloned into the pFastBacl transfer vector. […] Resultant ATX was then concentrated via centrifugation in Amicon Ultra 30,000 molecular weight cut off filter units (Millipore, Billerica, Mass.) and subsequent buffer exchange into storage buffer comprised of 50 mM Tris, pH 7.4 with 20% (v/v) ethylene glycol. Protein was held at −80° C. for long-term storage.
(§2) ATX Inhibition: ATX activity was assessed via hydrolysis of the synthetic, lipid-like FRET-based substrate FS-3 (Echelon Biosciences, Salt Lake City, Utah) or via hydrolysis of the nucleotide substrate p-nitrophenyl thymidine 5′-monophosphate (pNP-TMP) as described previously.^2 Reaction wells were loaded in 60 μl volumes in triplicate wells of half-area, black-wall 96-well plates in assay buffer consisting of 50 mM Tris, 140 mM NaCl, 5 mM KCl, 1 mM CaCl2, 1 mM MgCl2, […] BSA, pH 8.0. […] Fluorescence was read every 2 minutes for 1 hour at excitation/emission wavelengths of 485/528 nm for FS-3 hydrolysis or 405 nm absorbance for pNP-TMP hydrolysis using a FlexStation 3 microplate reader (Molecular Devices, Sunnyvale, Calif.). Data (relative fluorescence or absorbance) were then recorded as a mean value of the triplicates for each sample versus time. […] In the case of mechanism determination, the linear fluorescence data from time 10 minutes to 30 minutes were then transformed using a carboxyfluorescein standard curve to determine product concentration and plotted separately. Linear trend lines were inserted using Microsoft Excel, the slope of which represent the rates of reaction for each substrate concentration. This reaction rate data for each inhibitor concentration were then plotted against substrate (FS-3) concentration and simultaneously fitted via non-linear regression in the Michaelis-Menten equations for competitive, non-competitive, uncompetitive, and mixed-mode inhibition using GraphPad Prism version 5.0a. Mechanism of inhibition was determined by which curve fit had the best global fit (R^2 value).

human recombinant ATX [2] = target: T1, human recombinant ATX; experiment: ATX inhibition, hydrolysis of nucleotide substrate pNP-TMP; type: biochemical; conditions: 1 mM pNP-TMP, 4 nM ATX, compound 0 to 1 μM
Description: as §1, §2

Compound	ATX inhibitory activity (in words) (human recombinant ATX [1])	IC50 (human recombinant ATX [1])	pNP-TMP Inhibition (human recombinant ATX [2])	fold IC50 improvement relative to screening hit 918013 (human recombinant ATX [1])	Mechanism (human recombinant ATX [1]; mechanism of inhibition, FS-3 0 to 10 μM, inhibitor 0, 0.5×IC50 or 2×IC50)
O=C(Nc1cc(F)c(C(=O)O)c(F)c1)c1cc(S(=O)(=O)N2CCOCC2)c(Cl)cc1Cl [Compound 4, 4-(2,4-dichloro-5-(morpholinosulfonyl)benzamido)-2,6-difluorobenzoic Acid]	relatively inactive	> 1000 nM	None		
O=C(Nc1cc(F)c(F)c(F)c1Br)c1cc(S(=O)(=O)N2CCOCC2)c(Cl)cc1Cl [Compound 5, N-(2-bromo-3,4,5-trifluorophenyl)-2,4-dichloro-5-(morpholinosulfonyl)benzamide]	strong ATX inhibition			seven fold	
O=S(=O)(c1cc(-c2nc3cccc(F)c3o2)c(Cl)cc1Cl)N1CCOCC1 [Compound 7, 2-(2,4-dichloro-5-(morpholinosulfonyl)phenyl)-7-fluorobenzo[d]oxazole]	inactive				
O=S(=O)(c1cc(-c2nc3cc(F)c(F)cc3[nH]2)c(Cl)cc1Cl)N1CCOCC1 [Compound 8, 4-((2,4-dichloro-5-(5,6-difluoro-1H-benzo[d]imidazol-2-yl)phenyl)sulfonyl)-morpholine]	inactive				
CN(C(=O)c1cc(S(=O)(=O)N2CCOCC2)c(Cl)cc1Cl)c1cccc(F)c1 [Compound 9, 2,4-dichloro-N-(3-fluorophenyl)-N-methyl-5-(morpholinosulfonyl)benzamide]	low activity				
O=S(=O)(c1cc(CNc2ccc(F)c(F)c2)c(Cl)cc1Cl)N1CCOCC1 [Compound 10, N-(2,4-dichloro-5-(morpholinosulfonyl)benzyl)-3,4-difluoroaniline]	greatly deteriorated		None		
O=S(=O)(c1cc(CNc2cc(F)c(F)c(F)c2)c(Cl)cc1Cl)N1CCOCC1 [Compound 11, N-(2,4-dichloro-5-(morpholinosulfonyl)benzyl)-3,4,5-trifluoroaniline]		396 ± 44.1 nM	None		
O=S(=O)(c1cc(C(=S)Nc2cccc(F)c2)c(Cl)cc1Cl)N1CCOCC1 [Compound 12, 2,4-dichloro-N-(3-fluorophenyl)-5-(morpholinosulfonyl)benzothioamide]		121.5 ± 1.02 nM	None		
O=S(=O)(c1cc(C(=S)Nc2ccc(F)c(F)c2)c(Cl)cc1Cl)N1CCOCC1 [Compound 13, 2,4-dichloro-N-(3,4-difluorophenyl)-5-(morpholinosulfonyl)benzothioamide]		67.3 ± 9.73 nM	None		
O=S(=O)(c1cc(C(=S)Nc2cc(F)c(F)c(F)c2)c(Cl)cc1Cl)N1CCOCC1 [Compound 14, 2,4-dichloro-5-(morpholinosulfonyl)-N-(3,4,5-trifluorophenyl)benzothioamide]		35.3 ± 2.66 nM	None	three fold	
O=S(=O)(c1cc(C(=S)Nc2cc(Cl)c(F)c(Cl)c2)c(Cl)cc1Cl)N1CCOCC1 [Compound 15, 2,4-dichloro-N-(3,5-dichloro-4-fluorophenyl)-5-(morpholinosulfonyl)-benzothioamide]		83.1 ± 9.77 nM	None		
O=S(=O)(Nc1cc(S(=O)(=O)N2CCOCC2)c(Cl)cc1Cl)c1cccc(F)c1 [Compound 19]		> 1000 nM	None		
O=S(=O)(c1cc(N(S(=O)(=O)c2cccc(F)c2)S(=O)(=O)c2cccc(F)c2)c(Cl)cc1Cl)N1CCOCC1 [Compound 20]		> 1000 nM	None		
O=S(=O)(Nc1cccc(F)c1)c1cc(S(=O)(=O)N2CCOCC2)c(Cl)cc1Cl [Compound 22, 2,4-dichloro-N-(3-fluorophenyl)-5-(morpholinosulfonyl)benzenesulfonamide]		> 1000 nM	None		
O=S(=O)(Nc1cc(F)c(F)c(F)c1)c1cc(S(=O)(=O)N2CCOCC2)c(Cl)cc1Cl [Compound 23, 2,4-dichloro-5-(morpholinosulfonyl)-N-(3,4,5-trifluorophenyl)benzenesulfonamide]		> 1000 nM	None		
O=C(Nc1cc(F)c(F)c(F)c1)c1cc(NN2CCOCC2)c(Cl)cc1Cl [Compound 25, 2,4-dichloro-5-(morpholinoamino)-N-(3,4,5-trifluorophenyl)benzamide]	inactive	> 1000 nM	None		
CN1CCN(S(=O)(=O)c2cc(C(=S)Nc3cc(Cl)c(F)c(Cl)c3)c(Cl)cc2Cl)CC1 [Compound 29, 2,4-dichloro-N-(3,5-dichloro-4-fluorophenyl)-5-((4-methylpiperazin-1-yl)sulfonyl)-benzothioamide]		100 ± 8.11 nM	None		
O=C(Nc1cccc(F)c1)c1cc(S(=O)(=O)N2CCOCC2)c(Cl)cc1Cl [Compound 918013, 2,4-dichloro-N-(3-fluorophenyl)-5-(morpholinosulfonyl)benzamide, reference compound]		117 ± 1.97 nM	None		Competitive

The next lines start with the values.

ATX inhibitory activity (in words) (human recombinant ATX [1])	IC50 (human recombinant ATX [1])	pNP-TMP Inhibition (human recombinant ATX [2])	fold IC50 improvement relative to screening hit 918013 (human recombinant ATX [1])	Mechanism (human recombinant ATX [1]; mechanism of inhibition, FS-3 0 to 10 μM, inhibitor 0, 0.5×IC50 or 2×IC50)	Compound
poorly active	1030 nM	None			O=C(Nc1c(F)c(F)c(F)c(F)c1F)c1cc(S(=O)(=O)N2CCOCC2)c(Cl)cc1Cl [Compound 3c, 2,4-dichloro-5-(morpholinosulfonyl)-N-(perfluorophenyl)benzamide]
poorly active	> 1000 nM	None			O=C(Nc1cc(Cl)c(Cl)c(Cl)c1)c1cc(S(=O)(=O)N2CCOCC2)c(Cl)cc1Cl [Compound 3d, 2,4-dichloro-5-(morpholinosulfonyl)-N-(3,4,5-trichlorophenyl)benzamide]
poorly active	> 1000 nM	None			COc1cc(NC(=O)c2cc(S(=O)(=O)N3CCOCC3)c(Cl)cc2Cl)cc(OC)c1OC [Compound 3e, 2,4-dichloro-5-(morpholinosulfonyl)-N-(3,4,5-trimethoxyphenyl)benzamide]
	190 ± 13.1 nM	None			N#Cc1c(F)cc(NC(=O)c2cc(S(=O)(=O)N3CCOCC3)c(Cl)cc2Cl)cc1F [Compound 3h, 2,4-dichloro-N-(4-cyano-3,5-difluorophenyl)-5-(morpholinosulfonyl)benzamide]
	864 ± 51.9 nM	None			COC(=O)c1c(F)cc(NC(=O)c2cc(S(=O)(=O)N3CCOCC3)c(Cl)cc2Cl)cc1F [Compound 3i, Methyl 4-(2,4-dichloro-5-(morpholinosulfonyl)benzamido)-2,6-difluorobenzoate]
inactive	> 1000 nM	None			CS(=O)(=O)N(C(=O)c1cc(NN2CCOCC2)c(Cl)cc1Cl)c1cc(F)c(F)c(F)c1 [Compound 26a, 2,4-dichloro-N-(methylsulfonyl)-5-(morpholinoamino)-N-(3,4,5-trifluorophenyl)-benzamide]
	66 nM and 66.9 nM	None			CN1CCN(S(=O)(=O)c2cc(C(=O)Nc3cc(F)c(F)c(F)c3)c(Cl)cc2Cl)CC1 [Compound 28a, 2,4-dichloro-5-((4-methylpiperazin-1-yl)sulfonyl)-N-(3,4,5-trifluorophenyl)-benzamide]
	55 nM and 55.5 nM	None			CN1CCN(S(=O)(=O)c2cc(C(=O)Nc3cc(Cl)c(F)c(Cl)c3)c(Cl)cc2Cl)CC1 [Compound 28b, 2,4-dichloro-N-(3,5-dichloro-4-fluorophenyl)-5-((4-methylpiperazin-1-yl)sulfonyl)benzamide]
